Experiments:
[1] = intravenous toxicity in anaesthetised rats; format: in vivo; details: two anaesthetised rats, ten times the dose giving approximate 50% inhibition of gastric secretion in the anaesthetised rat
Experimental: (§1) No overt toxicity or side effects were noted during the rat or dog tests. The compound 5-[4-(2-allylguanidino)-1,2,3-triazol-2-yl]valeramide was administered intravenously to groups of two anaesthetised rats and four conscious mice at doses which were respectively ten times and one hundred times the dose, in mg/kg., which produced an approximate 50% inhibition of gastric secretion in the anaesthetised rat.

[2] = intravenous toxicity in conscious mice; format: in vivo; details: four conscious mice, one hundred times the dose giving approximate 50% inhibition of gastric secretion in the anaesthetised rat
Experimental: as §1

Structure (SMILES): C=CCN=C(N)Nc1cnn(CCCCC(N)=O)n1.O=C(O)/C=C\C(=O)O [Example 8, 5-(4-[2-allylguanidino]-1,2,3-triazol-2-yl)valeramide maleate]
- toxic symptoms [1]: No toxic symptoms were noted
- toxic symptoms [2]: No toxic symptoms were noted

Reference: patent US4696933A, “Guanidine compounds useful as histamine H2-antagonists” (ICI Americas Inc., priority 1981, dated 1987)
